According to ChEMBL document CHEMBL5665443, “Enzyme Inhibitor Single Concentration assay results for EUbOPEN Chemogenomics Library” (2024):

What was measured:
[1] = biological target: Endonuclease 8-like 1 (Homo sapiens) (UniProt Q96FI4); conditions: Hit No;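 further: fluorescence at 594 nm from quenched duplex DNA oligonucleotides released by NEIL1 cleavage and strand separation, reported as reduction of this enzyme activity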
Description: Inhibition of NEIL1 by quantifying inhibition of NEIL1-mediated cleavage and dissociation of quenched duplex DNA oligonucleotides, measured as fluorescence at 594 nm.

[2] = biological target: T1, Endonuclease 8-like 2 (Homo sapiens) (UniProt Q969S2); conditions: Hit No;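 further: fluorescence at 594 nm reports NEIL2 cutting and release of a quenched double-stranded DNA oligo substrate, reduced signal read as inhibition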
T1 sequence (whole entry): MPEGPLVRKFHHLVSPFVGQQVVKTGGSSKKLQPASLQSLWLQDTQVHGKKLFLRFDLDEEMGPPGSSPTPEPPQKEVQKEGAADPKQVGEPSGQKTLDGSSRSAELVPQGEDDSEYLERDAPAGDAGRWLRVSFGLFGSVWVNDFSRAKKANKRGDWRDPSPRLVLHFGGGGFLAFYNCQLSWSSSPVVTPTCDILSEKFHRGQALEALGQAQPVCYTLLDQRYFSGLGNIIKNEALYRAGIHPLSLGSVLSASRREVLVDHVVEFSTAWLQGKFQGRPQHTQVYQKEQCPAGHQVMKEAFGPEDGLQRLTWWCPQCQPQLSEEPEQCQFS
Description: Inhibition of NEIL2 by quantifying inhibition of NEIL2-mediated cleavage and dissociation of quenched duplex DNA oligonucleotides, measured as fluorescence at 594 nm.

[3] = biological target: T2, Adenine DNA glycosylase (Homo sapiens) (UniProt Q9UIF7); conditions: Hit No;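 further: human MUTYH activity read as 594 nm fluorescence from cleavage and release of a quenched DNA duplex, coupled with APE1 for strand incision, lower signal meaning inhibition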
T2 sequence (whole entry): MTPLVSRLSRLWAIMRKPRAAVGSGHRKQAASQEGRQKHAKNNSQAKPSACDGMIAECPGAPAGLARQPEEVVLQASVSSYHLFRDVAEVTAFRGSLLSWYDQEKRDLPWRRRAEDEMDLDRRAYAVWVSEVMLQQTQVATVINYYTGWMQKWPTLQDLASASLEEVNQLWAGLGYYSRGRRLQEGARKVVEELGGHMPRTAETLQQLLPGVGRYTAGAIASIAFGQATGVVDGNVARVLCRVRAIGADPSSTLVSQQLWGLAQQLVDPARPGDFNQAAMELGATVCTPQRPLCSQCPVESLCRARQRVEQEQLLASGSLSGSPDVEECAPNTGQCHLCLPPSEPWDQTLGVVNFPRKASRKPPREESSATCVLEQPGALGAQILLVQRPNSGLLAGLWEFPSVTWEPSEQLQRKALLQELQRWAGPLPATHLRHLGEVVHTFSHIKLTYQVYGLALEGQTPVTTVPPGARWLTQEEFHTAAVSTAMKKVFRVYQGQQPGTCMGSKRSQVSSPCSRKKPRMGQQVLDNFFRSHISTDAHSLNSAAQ
Description: Inhibition of MUTYH by quantifying inhibition of MUTYH-mediated cleavage and dissociation of quenched duplex DNA oligonucleotides, measured as fluorescence at 594 nm. To generate a functional strand incision and increase turn-over this assay is coupled to APE1.

[4] = biological target: T3, Single-strand selective monofunctional uracil DNA glycosylase (Homo sapiens) (UniProt Q53HV7); conditions: Hit No;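 further: enzymatic SMUG1 assay coupled with APE1, reading fluorescence at 594 nm released when a quenched double-stranded DNA oligonucleotide substrate is cleaved and separated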
T3 sequence (whole entry): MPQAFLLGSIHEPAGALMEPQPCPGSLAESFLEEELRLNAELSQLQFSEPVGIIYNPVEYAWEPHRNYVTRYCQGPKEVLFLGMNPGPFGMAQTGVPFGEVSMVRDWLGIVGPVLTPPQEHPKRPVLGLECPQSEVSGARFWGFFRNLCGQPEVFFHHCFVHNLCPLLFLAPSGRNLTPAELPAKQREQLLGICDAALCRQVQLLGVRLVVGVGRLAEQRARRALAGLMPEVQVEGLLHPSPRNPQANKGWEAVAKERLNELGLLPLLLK
Description: Inhibition of SMUG1 by quantifying inhibition of SMUG1-mediated cleavage and dissociation of quenched duplex DNA oligonucleotides, measured as fluorescence at 594 nm. To generate a functional strand incision and increase turn-over this assay is coupled to APE1.

[5] = biological target: G/T mismatch-specific thymine DNA glycosylase (Homo sapiens) (UniProt Q13569); conditions: Hit No;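 further: human TDG cleavage of quenched duplex DNA oligonucleotides coupled to APE1, strand release read as fluorescence at 594 nm, inhibition of TDG activity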
G/T mismatch-specific thymine DNA glycosylase (Homo sapiens), sequence (Q13569 whole entry): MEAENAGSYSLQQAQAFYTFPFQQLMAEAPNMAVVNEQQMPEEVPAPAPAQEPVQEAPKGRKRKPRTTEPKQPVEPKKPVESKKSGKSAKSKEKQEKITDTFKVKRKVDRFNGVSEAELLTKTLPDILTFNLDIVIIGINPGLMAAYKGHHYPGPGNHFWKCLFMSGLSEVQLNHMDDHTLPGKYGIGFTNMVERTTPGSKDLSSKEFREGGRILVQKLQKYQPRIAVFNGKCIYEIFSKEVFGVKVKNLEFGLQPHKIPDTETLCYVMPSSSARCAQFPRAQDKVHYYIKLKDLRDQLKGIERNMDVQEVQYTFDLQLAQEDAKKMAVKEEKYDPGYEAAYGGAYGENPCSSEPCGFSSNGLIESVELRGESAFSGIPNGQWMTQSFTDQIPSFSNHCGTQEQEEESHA
Description: Inhibition of TDG by quantifying inhibition of TDG-mediated cleavage and dissociation of quenched duplex DNA oligonucleotides, measured as fluorescence at 594 nm. To generate a functional strand incision and increase turn-over this assay is coupled to APE1.

[6] = biological target: Uracil-DNA glycosylase (Homo sapiens) (UniProt P13051); conditions: Hit No;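 further: UNG excision on a quenched double-stranded DNA oligo probe, with APE1 added for strand incision and turnover, read as fluorescence at 594 nm as strands separate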
Uracil-DNA glycosylase (Homo sapiens), sequence (P13051 whole entry, the tested form may be a part): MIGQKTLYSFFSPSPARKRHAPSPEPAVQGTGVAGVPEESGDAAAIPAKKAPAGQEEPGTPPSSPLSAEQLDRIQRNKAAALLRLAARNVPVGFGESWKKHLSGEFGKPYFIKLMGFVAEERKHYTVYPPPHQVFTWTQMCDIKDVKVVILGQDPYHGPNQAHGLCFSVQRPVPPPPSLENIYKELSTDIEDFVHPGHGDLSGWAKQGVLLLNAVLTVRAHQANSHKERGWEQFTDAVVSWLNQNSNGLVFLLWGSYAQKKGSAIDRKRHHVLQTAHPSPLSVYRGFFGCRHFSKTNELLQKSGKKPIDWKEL
Description: Inhibition of UNG by quantifying inhibition of UNG-mediated cleavage and dissociation of quenched duplex DNA oligonucleotides, measured as fluorescence at 594 nm. To generate a functional strand incision and increase turn-over this assay is coupled to APE1.

[7] = biological target: Methyl-CpG-binding domain protein 4 (Homo sapiens) (UniProt O95243); conditions: Hit No;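 further: MBD4 activity read as fluorescence at 594 nm from cleavage and release of a quenched duplex DNA oligonucleotide, with APE1 coupled to incise the strand and raise turnover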
Methyl-CpG-binding domain protein 4 (Homo sapiens), sequence (O95243 whole entry, the tested form may be a part): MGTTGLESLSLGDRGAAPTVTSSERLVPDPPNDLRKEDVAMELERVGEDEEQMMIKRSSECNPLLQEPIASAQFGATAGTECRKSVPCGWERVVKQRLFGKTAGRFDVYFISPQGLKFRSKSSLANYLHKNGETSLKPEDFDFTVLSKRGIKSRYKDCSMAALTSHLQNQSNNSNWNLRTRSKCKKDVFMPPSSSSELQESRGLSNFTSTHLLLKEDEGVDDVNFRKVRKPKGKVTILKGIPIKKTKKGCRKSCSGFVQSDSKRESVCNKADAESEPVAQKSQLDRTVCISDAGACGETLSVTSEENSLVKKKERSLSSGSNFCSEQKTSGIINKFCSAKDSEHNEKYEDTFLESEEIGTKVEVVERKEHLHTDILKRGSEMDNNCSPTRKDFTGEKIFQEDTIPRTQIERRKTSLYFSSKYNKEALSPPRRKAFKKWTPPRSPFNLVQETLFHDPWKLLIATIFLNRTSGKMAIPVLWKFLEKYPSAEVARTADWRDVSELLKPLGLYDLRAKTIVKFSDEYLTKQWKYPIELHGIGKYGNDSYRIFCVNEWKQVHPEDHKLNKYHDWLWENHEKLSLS
Description: Inhibition of MBD4 by quantifying inhibition of MBD4-mediated cleavage and dissociation of quenched duplex DNA oligonucleotides, measured as fluorescence at 594 nm. To generate a functional strand incision and increase turn-over this assay is coupled to APE1.

[8] = biological target: T4, Endonuclease III-like protein 1 (Homo sapiens) (UniProt P78549); conditions: Hit No;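 further: enzyme assay tracking NTHL1 cutting and release of a quenched double-stranded DNA oligo substrate, read as fluorescence at 594 nm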
T4 sequence (whole entry): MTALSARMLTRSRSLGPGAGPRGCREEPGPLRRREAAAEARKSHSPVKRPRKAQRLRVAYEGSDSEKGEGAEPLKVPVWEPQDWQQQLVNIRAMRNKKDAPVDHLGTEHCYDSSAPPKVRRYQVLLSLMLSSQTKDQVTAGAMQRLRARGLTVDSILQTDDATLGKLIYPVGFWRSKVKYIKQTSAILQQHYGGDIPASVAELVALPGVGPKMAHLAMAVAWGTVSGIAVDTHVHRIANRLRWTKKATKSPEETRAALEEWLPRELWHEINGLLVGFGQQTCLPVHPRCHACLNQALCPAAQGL
Description: Inhibition of NTHL1 by quantifying inhibition of NTHL1-mediated cleavage and dissociation of quenched duplex DNA oligonucleotides, measured as fluorescence at 594 nm.

[9] = biological target: N-glycosylase/DNA lyase (Homo sapiens) (UniProt O15527); conditions: Compound Concentration 10.0 uM, Hit No;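 further: OGG1 cleavage of a quenched duplex DNA oligonucleotide, coupled to APE1 for strand incision, read as fluorescence at 594 nm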
N-glycosylase/DNA lyase (Homo sapiens), sequence (O15527 whole entry): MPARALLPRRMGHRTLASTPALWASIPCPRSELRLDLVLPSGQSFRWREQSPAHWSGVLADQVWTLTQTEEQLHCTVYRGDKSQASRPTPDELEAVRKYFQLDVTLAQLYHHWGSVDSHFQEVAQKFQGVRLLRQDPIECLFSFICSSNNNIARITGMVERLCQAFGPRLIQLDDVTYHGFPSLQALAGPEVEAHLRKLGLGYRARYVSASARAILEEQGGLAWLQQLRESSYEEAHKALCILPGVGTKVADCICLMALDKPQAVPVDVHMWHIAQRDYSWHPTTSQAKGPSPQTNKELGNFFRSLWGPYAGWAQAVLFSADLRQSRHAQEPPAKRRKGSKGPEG
Description: Inhibition of OGG1 by quantifying inhibition of OGG1-mediated cleavage and dissociation of quenched duplex DNA oligonucleotides, measured as fluorescence at 594 nm. To generate a functional strand incision and increase turn-over this assay is coupled to APE1.

Endonuclease 8-like 1 (Homo sapiens), sequence (Q96FI4 whole entry): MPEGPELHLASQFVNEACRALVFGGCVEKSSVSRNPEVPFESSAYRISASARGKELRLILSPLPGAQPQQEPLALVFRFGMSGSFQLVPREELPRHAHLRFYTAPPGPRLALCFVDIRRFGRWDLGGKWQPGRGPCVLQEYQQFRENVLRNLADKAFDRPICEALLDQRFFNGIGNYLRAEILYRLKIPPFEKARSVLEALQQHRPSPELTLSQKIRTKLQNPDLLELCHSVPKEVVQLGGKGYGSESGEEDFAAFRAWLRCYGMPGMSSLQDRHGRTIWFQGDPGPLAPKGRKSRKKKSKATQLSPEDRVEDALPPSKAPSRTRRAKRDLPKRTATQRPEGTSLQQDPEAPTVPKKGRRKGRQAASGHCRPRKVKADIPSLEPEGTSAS

Row | Compound | inhibition ([1]; Compound Concentration 10.0 uM) [%] | inhibition ([2]; Compound Concentration 10.0 uM) [%] | inhibition ([3]; Compound Concentration 10.0 uM) [%] | inhibition ([4]; Compound Concentration 10.0 uM) [%] | inhibition ([5]; Compound Concentration 10.0 uM) [%] | inhibition ([6]; Compound Concentration 10.0 uM) [%] | inhibition ([7]; Compound Concentration 10.0 uM) [%] | inhibition ([8]; Compound Concentration 10.0 uM) [%] | inhibition ([3]; Compound Concentration 1.0 uM) [%] | inhibition ([4]; Compound Concentration 1.0 uM) [%] | inhibition ([5]; Compound Concentration 1.0 uM) [%] | inhibition ([6]; Compound Concentration 1.0 uM) [%] | inhibition ([8]; Compound Concentration 1.0 uM) [%] | inhibition ([1]; Compound Concentration 1.0 uM) [%] | inhibition ([2]; Compound Concentration 1.0 uM) [%] | inhibition ([7]; Compound Concentration 1.0 uM) [%] | inhibition [9] [%]
1 | CC(C)C(=O)Nc1n[nH]c2cc(-c3cccc(NS(=O)(=O)C4CC4)c3)ccc12 | 4.76 | 0.236 | 2.74 | 13.9 | 40.3 | -0.0214 | -3.9 | -0.61 | – | – | – | – | – | – | – | – | –
2 | Cc1cc(NC(=O)c2cccc(S(F)(F)(F)(F)F)c2)cc(-n2ccn3nc(-c4cccnc4)cc23)c1 | – | -7.89 | – | 3.64 | 17.7 | 0.948 | 4.59 | 7.92 | 16 | 19.3 | 54.6 | 1.8 | -2 | – | – | – | –
3 | CC(C)(C)c1cc(NC(=O)Nc2ccc(-c3cn4c(n3)sc3cc(OCCN5CCOCC5)ccc34)cc2)no1 | – | – | – | – | – | – | – | – | 11.2 | 19.8 | 37.3 | 1.47 | -3.4 | 5.55 | 1.85 | 0.784 | –
4 | Cc1cccc(CCN2CCC(C(=O)c3ccc(NS(C)(=O)=O)cc3)CC2)n1 | 0.158 | -4.17 | -5.27 | -8.55 | 11.1 | -5.19 | -1.99 | 0.568 | – | – | – | – | – | – | – | – | –
5 | Cc1nc(N2CC[C@@H](O)C2)ncc1-c1cc(C(F)(F)F)cc2[nH]ncc12 | – | – | -2.45 | 10.3 | 48 | -1.48 | 58.5 | -5.89 | – | – | – | – | – | – | – | – | –
6 | C[C@@H](Oc1cc(-n2cnc3ccc(CN4CCN(C)CC4)cc32)sc1C(N)=O)c1ccccc1C(F)(F)F | – | – | – | – | – | – | – | – | 6.26 | 26.8 | 50 | 5.21 | -6.19 | -0.655 | – | 15.4 | –
7 | CCCCC(=O)N(Cc1ccc(-c2ccccc2-c2nnn[nH]2)cc1)[C@H](C(=O)O)C(C)C | 0.537 | 1.76 | 34.3 | – | 0.584 | – | -9.61 | 1.92 | – | – | – | – | – | – | – | – | -4.35
8 | CC(C)(C)c1ccc2c(c1)CC[C@H]2NC(=O)Nc1cccc2[nH]ncc12 | 7.86 | -4.17 | -7.76 | 11.7 | -8.31 | -4.28 | – | 3.04 | – | – | – | – | – | – | – | – | -2.36
9 | COc1ccc(CN(CCN(C)C)c2ccccn2)cc1 | 2.61 | -3.23 | 4.88 | – | 2.93 | – | -9.78 | 21.7 | – | – | – | – | – | – | – | – | -6.42
10 | H-LVVYPWT-OH | 7.27 | 2.2 | 8.4 | – | 8.08 | -2.47 | 9.67 | 14.6 | – | – | – | – | – | – | – | – | -2.03
11 | COc1cc(-c2cn([C@H]3CCc4ccccc4N(CC(F)(F)F)C3=O)nn2)ccc1-n1ccc(C)n1 | – | 12.5 | -8.57 | 8.81 | 24.5 | 8.95 | -5.88 | -9.83 | – | – | – | – | – | – | – | – | –
12 | Cc1c[nH]c2nccc(Oc3c(F)cc(Nc4cc(Cl)nc(N)n4)cc3F)c12 | – | – | – | – | – | – | – | – | 11.7 | 20.7 | 54.4 | 4.99 | -0.432 | – | 3.69 | 43.9 | –
13 | Cc1ccccc1N1CCN(CCc2nnc3n2CCCC3)CC1 | 0.834 | -1.98 | 7.44 | -1.58 | 4.82 | – | -9.49 | -6.14 | – | – | – | – | – | – | – | – | –
